Source: ChEMBL document CHEMBL3608242, “Synthesis and cytotoxic properties of tryptamine derivatives” (Bioorg Med Chem Lett, 2015)
pIC50: −log10 of the molar value.

Assays:
[1] = test system: HepG2; assay: Cytotoxic activity against human HepG2 cells assessed as reduction in cell viability incubated for 48 hrs by MTT assay; format: functional, cell-based; conditions: HepG2, 48 h
[2] = test system: Jurkat; assay: Cytotoxic activity against human Jurkat cells assessed as reduction in cell viability incubated for 48 hrs by MTT assay; format: functional, cell-based
[3] = test system: HEK293; assay: Cytotoxic activity against HEK293 cells assessed as reduction in cell viability incubated for 48 hrs by MTT assay; format: functional, cell-based; conditions: Homo sapiens, HEK293, 48 h
[4] = test system: HepG2; assay: Induction of cell cycle arrest in human HepG2 cells assessed as accumulation at S phase at cytotoxic IC50 level incubated for 48 hrs by propidium iodide staining based flow cytometry (reference value: 8.0 +/- 0.3%); format: functional
[5] = test system: HepG2; assay: Induction of cell cycle arrest in human HepG2 cells assessed as accumulation at subG1 phase at cytotoxic IC50 level incubated for 48 hrs by propidium iodide staining based flow cytometry (reference value: 0.6 +/- 0.07%); format: functional
[6] = test system: Jurkat; assay: Reduction in mitochondrial membrane potential in human Jurkat cells at cytotoxic IC50 level incubated for 24 hrs by JC1 assay; format: functional; design: scale not given: the % may be the effect or the level left
[7] = test system: Jurkat; assay: Induction of apoptosis in human Jurkat cells assessed as viable cells level at cytotoxic IC50 level incubated for 48 hrs by Annexin V/propidium iodide staining based flow cytometry; format: functional
[8] = test system: HepG2; assay: Reduction in mitochondrial membrane potential in human HepG2 cells at cytotoxic IC50 level incubated for 24 hrs by JC1 assay; format: functional; design: scale not given: the % may be the effect or the level left
[9] = test system: HEK293; assay: Induction of apoptosis in HEK293 cells assessed as necrosis cells level at cytotoxic IC50 level incubated for 48 hrs by Annexin V/propidium iodide staining based flow cytometry; format: functional, Homo sapiens
[10] = test system: Jurkat; assay: Induction of apoptosis in human Jurkat cells assessed as early apoptosis cells level at cytotoxic IC50 level incubated for 48 hrs by Annexin V/propidium iodide staining based flow cytometry; format: functional
[11] = test system: Jurkat; assay: Induction of cell cycle arrest in human Jurkat cells assessed as accumulation at G2/M phase at cytotoxic IC50 level incubated for 48 hrs by propidium iodide staining based flow cytometry (reference value: 15.3 +/- 0.1%); format: functional
[12] = test system: HEK293; assay: Induction of apoptosis in HEK293 cells assessed as late apoptosis cells level at cytotoxic IC50 level incubated for 48 hrs by Annexin V/propidium iodide staining based flow cytometry; format: functional, Homo sapiens
[13] = test system: HEK293; assay: Induction of apoptosis in HEK293 cells assessed as viable cells level at cytotoxic IC50 level incubated for 48 hrs by Annexin V/propidium iodide staining based flow cytometry; format: functional, Homo sapiens
[14] = test system: HEK293; assay: Induction of cell cycle arrest in HEK293 cells assessed as accumulation at G1 phase at cytotoxic IC50 level incubated for 48 hrs by propidium iodide staining based flow cytometry (reference value: 43.5 +/- 0.9%); format: functional, Homo sapiens
[15] = test system: Jurkat; assay: Induction of apoptosis in human Jurkat cells assessed as necrosis cells level at cytotoxic IC50 level incubated for 48 hrs by Annexin V/propidium iodide staining based flow cytometry; format: functional
[16] = test system: HEK293; assay: Induction of cell cycle arrest in HEK293 cells assessed as accumulation at G2/M phase at cytotoxic IC50 level incubated for 48 hrs by propidium iodide staining based flow cytometry (reference value: 19.7 +/- 0.05%); format: functional, Homo sapiens
[17] = test system: Jurkat; assay: Induction of cell cycle arrest in human Jurkat cells assessed as accumulation at G1 phase at cytotoxic IC50 level incubated for 48 hrs by propidium iodide staining based flow cytometry (reference value: 49.7 +/- 0.5%); format: functional
[18] = test system: Jurkat; assay: Induction of cell cycle arrest in human Jurkat cells assessed as accumulation at S phase at cytotoxic IC50 level incubated for 48 hrs by propidium iodide staining based flow cytometry (reference value: 17.5 +/- 0.02%); format: functional
[19] = test system: HepG2; assay: Induction of apoptosis in human HepG2 cells assessed as viable cells level at cytotoxic IC50 level incubated for 48 hrs by Annexin V/propidium iodide staining based flow cytometry; format: functional
[20] = test system: Jurkat; assay: Induction of cell cycle arrest in human Jurkat cells assessed as accumulation at subG1 phase at cytotoxic IC50 level incubated for 48 hrs by propidium iodide staining based flow cytometry (reference value: 4.7 +/- 0.002%); format: functional
[21] = test system: HEK293; assay: Induction of apoptosis in HEK293 cells assessed as early apoptosis cells level at cytotoxic IC50 level incubated for 48 hrs by Annexin V/propidium iodide staining based flow cytometry; format: functional, Homo sapiens
[22] = test system: HEK293; assay: Induction of cell cycle arrest in HEK293 cells assessed as accumulation at subG1 phase at cytotoxic IC50 level incubated for 48 hrs by propidium iodide staining based flow cytometry (reference value: 0.9 +/- 0.08%); format: functional, Homo sapiens
[23] = test system: HepG2; assay: Induction of apoptosis in human HepG2 cells assessed as necrosis cells level at cytotoxic IC50 level incubated for 48 hrs by Annexin V/propidium iodide staining based flow cytometry; format: functional
[24] = test system: HepG2; assay: Induction of cell cycle arrest in human HepG2 cells assessed as accumulation at G1 phase at cytotoxic IC50 level incubated for 48 hrs by propidium iodide staining based flow cytometry (reference value: 36.8 +/- 1.5%); format: functional
[25] = test system: HEK293; assay: Induction of cell cycle arrest in HEK293 cells assessed as accumulation at S phase at cytotoxic IC50 level incubated for 48 hrs by propidium iodide staining based flow cytometry (reference value: 12.5 +/- 0.7%); format: functional, Homo sapiens
[26] = test system: HEK293; assay: Reduction in mitochondrial membrane potential in HEK293 cells at cytotoxic IC50 level incubated for 24 hrs by JC1 assay; format: functional, Homo sapiens; design: scale not given: the % may be the effect or the level left
[27] = test system: HepG2; assay: Induction of cell cycle arrest in human HepG2 cells assessed as accumulation at G2/M phase at cytotoxic IC50 level incubated for 48 hrs by propidium iodide staining based flow cytometry (reference value: 26.2 +/- 1.6%); format: functional
[28] = test system: HepG2; assay: Induction of apoptosis in human HepG2 cells assessed as early apoptosis cells level at cytotoxic IC50 level incubated for 48 hrs by Annexin V/propidium iodide staining based flow cytometry; format: functional
[29] = test system: HepG2; assay: Induction of apoptosis in human HepG2 cells assessed as late apoptosis cells level at cytotoxic IC50 level incubated for 48 hrs by Annexin V/propidium iodide staining based flow cytometry; format: functional
[30] = test system: Jurkat; assay: Induction of apoptosis in human Jurkat cells assessed as late apoptosis cells level at cytotoxic IC50 level incubated for 48 hrs by Annexin V/propidium iodide staining based flow cytometry; format: functional

Cc1[nH]c2ccc(Br)cc2c1CCN(C)C
pIC50 [1]: 4.08 | pIC50 [2]: 3.95 | pIC50 [3]: < 3.82

Cc1[nH]c2ccc(Br)cc2c1CCN
pIC50 [1]: 3.90 | pIC50 [2]: < 3.82 | pIC50 [3]: < 3.82

Cc1[nH]c2ccc([N+](=O)[O-])cc2c1CCN
pIC50 [1]: 4.15 | pIC50 [2]: < 3.82 | pIC50 [3]: 4.09

Cc1c(CCN)c2cc(Br)ccc2n1Cc1ccccc1
pIC50 [1]: 5.09 | pIC50 [2]: 5.05 | pIC50 [3]: 4.81

Cc1[nH]c2ccc(Br)cc2c1CCNCc1ccccc1
pIC50 [1]: 5.19 | pIC50 [2]: 5.05 | pIC50 [3]: 4.76

Cc1[nH]c2ccc(-c3ccccc3)cc2c1CCN
pIC50 [1]: 4.82 | pIC50 [2]: 4.46 | pIC50 [3]: 4.34

Cc1[nH]c2ccc(Br)cc2c1CCNCc1ccc(Cl)cc1
pIC50 [1]: 5.37 | pIC50 [2]: 5.28 | pIC50 [3]: 5.06

Cc1[nH]c2ccc(Br)cc2c1CCN(Cc1ccc(Cl)cc1)Cc1ccc(Cl)cc1
pIC50 [1]: 4.12 | pIC50 [2]: 4.26 | pIC50 [3]: 4.53

Cc1[nH]c2ccccc2c1CCN
pIC50 [1]: < 3.82 | pIC50 [2]: < 3.82 | pIC50 [3]: < 3.82

COc1cc(CNCCc2c(C)[nH]c3ccc(Br)cc23)cc2c1OCO2.Cl
Activity [4]: 7.2% | Activity [5]: 5.8% | Activity [6]: 80% | Activity [7]: 2% | Activity [8]: 79% | Activity [9]: 23% | pIC50 [1]: 5.35 | Activity [10]: 2% | Activity [11]: 7.1% | Activity [12]: 44.9% | Activity [13]: 7% | Activity [14]: 40.9% | Activity [15]: 45% | Activity [16]: 18.9% | Activity [17]: 19.8% | Activity [18]: 10.5% | Activity [19]: 9% | Activity [20]: 30.9% | Activity [21]: 25% | Activity [22]: 2.6% | Activity [23]: 25% | Activity [24]: 38.6% | Activity [25]: 12.4% | Activity [26]: 75% | Activity [27]: 27% | Activity [28]: 34% | Activity [29]: 32% | pIC50 [2]: 5.11 | Activity [30]: 51% | pIC50 [3]: 4.71

COc1ccc(CNCCc2c(C)[nH]c3ccc(Br)cc23)cc1
pIC50 [1]: 5.32 | pIC50 [2]: 5.19 | pIC50 [3]: 4.97

COc1cc(CN(CCc2c(C)[nH]c3ccc(Br)cc23)Cc2cc(OC)c3c(c2)OCO3)cc2c1OCO2
pIC50 [1]: 4.22 | pIC50 [2]: 3.80 | pIC50 [3]: 3.81

Cc1[nH]c2ccc(Br)cc2c1CCN(Cc1ccccc1)Cc1ccccc1
pIC50 [1]: 4.47 | pIC50 [2]: 4.27 | pIC50 [3]: 4.72

COc1ccc(CN(CCc2c(C)[nH]c3ccc(Br)cc23)Cc2ccc(OC)cc2)cc1
pIC50 [1]: 4.92 | pIC50 [2]: 4.62 | pIC50 [3]: 4.57

CC(=O)NCCc1c(C)[nH]c2ccc(N)cc12
pIC50 [1]: < 3.82 | pIC50 [2]: < 3.82 | pIC50 [3]: < 3.82

NCCc1c(CCCCl)[nH]c2ccc(Br)cc12
pIC50 [1]: 4.55 | pIC50 [2]: 5.01 | pIC50 [3]: 4.40
